Results: ChEMBL document CHEMBL5537113, “Discovery of 1,2-diaryl-3-oxopyrazolidin-4-carboxamides as a new class of MurA enzyme inhibitors and characterization of their antibacterial activity” (Eur J Med Chem, 2023)
The source made the active and inactive calls. The rule behind the calls is not given here.

Tests used:
[1] = target: UDP-N-acetylglucosamine 1-carboxyvinyltransferase (Escherichia coli K-12, UniProt P0A749); assay: Inhibition of Escherichia coli K12 His-tagged MurA expressed in Escherichia coli BL21 cells using UNAG as substrate pre incubated for 15 mins followed by substrate addition and measured after 15 mins by microplate reader analysis
[2] = test system: Staphylococcus aureus; assay: Antibacterial activity against Staphylococcus aureus Newman D2C NCTC 10833 assessed as reduction in microbial growth incubated for 16 hrs by serial dilution method; assay type: functional
[3] = test system: UDP-N-acetylglucosamine 1-carboxyvinyltransferase (Escherichia coli K-12), P0A749 [C115D]; assay: Inhibition of Escherichia coli MurA C115D mutant using UNAG as substrate pre incubated for 15 mins followed by substrate addition and measured after 15 mins by microplate reader analysis; details: time 30.0 min
[4] = target: UDP-N-acetylglucosamine 1-carboxyvinyltransferase (Escherichia coli K-12, UniProt P0A749, C115D); assay: Inhibition of Escherichia coli MurA C115D mutant at 50 uM using UNAG as substrate pre incubated for 15 mins followed by substrate addition and measured after 15 mins by microplate reader analysis relative to control
[5] = target: UDP-N-acetylglucosamine 1-carboxyvinyltransferase (Escherichia coli K-12) (UniProt P0A749); assay: Inhibition of Escherichia coli K12 His-tagged MurA expressed in Escherichia coli BL21 cells at 50 uM using UNAG as substrate pre incubated for 15 mins followed by substrate addition and measured after 15 mins by microplate reader analysis relative to control; details: time 30.0 min
[6] = test system: Bacteria; assay: Binding affinity to wild type U15-N labelled MurA (unknown origin) expressed in Escherichia coli at 200 uM using UNAG as substrate incubated for 90 to 150 mins by 15N-1H-HSQC NMR analysis; details: time 90-150 min
[7] = Drug uptake in Escherichia coli harboring tolC deletion mutant at 10 uM incubated for 30 mins by LC analysis; assay type: ADME; details: 0.5 h
[8] = test system: Escherichia coli; assay: Antibacterial activity against Escherichia coli harboring tolC deletion mutant assessed as reduction in microbial growth incubated for 16 hrs by serial dilution method; assay type: functional
[9] = Drug uptake in Escherichia coli harboring tolC deletion mutant assessed per 1.6x10^9 cells at 10 uM incubated for 30 mins by LC analysis; assay type: ADME; details: 0.5 h
[10] = test system: Clostridioides difficile; assay: Antibacterial activity against Clostridioides difficile ATCC BAA1870 assessed as reduction in microbial growth incubated for 48 hrs by broth microdilution method; assay type: functional
[11] = test system: Clostridioides difficile; assay: Antibacterial activity against Clostridioides difficile NR-49288 assessed as reduction in microbial growth incubated for 48 hrs by broth microdilution method; assay type: functional
[12] = test system: Streptococcus pneumoniae; assay: Antibacterial activity against Streptococcus pneumoniae ATCC 700677 assessed as reduction in microbial growth by CLSI based broth microdilution method; assay type: functional
[13] = test system: Clostridioides difficile; assay: Antibacterial activity against Clostridioides difficile NR-49286 assessed as reduction in microbial growth incubated for 48 hrs by broth microdilution method; assay type: functional
[14] = test system: Clostridioides difficile; assay: Bactericidal activity against Clostridioides difficile ATCC 43255 assessed as reduction in microbial growth by broth microdilution method; assay type: functional
[15] = test system: Lactobacillus gasseri; assay: Antibacterial activity against Lactobacillus gasseri HM 403 assessed as reduction in microbial growth incubated for 48 hrs by broth microdilution method; assay type: functional
[16] = test system: Clostridioides difficile; assay: Bactericidal activity against Clostridioides difficile NR-32904 assessed as reduction in microbial growth by broth microdilution method; assay type: functional
[17] = test system: Clostridioides difficile; assay: Bactericidal activity against Clostridioides difficile NR-49278 assessed as reduction in microbial growth by broth microdilution method; assay type: functional
[18] = test system: Bifidobacterium breve; assay: Antibacterial activity against Bifidobacterium breve HM1120 assessed as reduction in microbial growth incubated for 48 hrs by broth microdilution method; assay type: functional
[19] = test system: Bacteroides fragilis; assay: Antibacterial activity against Bacteroides fragilis HM 20 assessed as reduction in microbial growth incubated for 48 hrs by broth microdilution method; assay type: functional
[20] = test system: Bacteroides fragilis; assay: Antibacterial activity against Bacteroides fragilis HM 709 assessed as reduction in microbial growth incubated for 48 hrs by broth microdilution method; assay type: functional
[21] = test system: Clostridioides difficile; assay: Antibacterial activity against Clostridioides difficile HM-88 assessed as reduction in microbial growth incubated for 48 hrs by broth microdilution method; assay type: functional
[22] = test system: Bifidobacterium longum; assay: Antibacterial activity against Bifidobacterium longum HM 846 assessed as reduction in microbial growth incubated for 48 hrs by broth microdilution method; assay type: functional
[23] = test system: Clostridioides difficile; assay: Antibacterial activity against Clostridioides difficile NR-49283 assessed as reduction in microbial growth incubated for 48 hrs by broth microdilution method; assay type: functional
[24] = test system: Bifidobacterium angulatum; assay: Antibacterial activity against Bifidobacterium angulatum HM 1189 assessed as reduction in microbial growth incubated for 48 hrs by broth microdilution method; assay type: functional
[25] = test system: Clostridioides difficile; assay: Antibacterial activity against Clostridioides difficile NR-49287 assessed as reduction in microbial growth incubated for 48 hrs by broth microdilution method; assay type: functional
[26] = test system: Lactobacillus crispatus; assay: Antibacterial activity against Lactobacillus crispatus HM 103 assessed as reduction in microbial growth incubated for 48 hrs by broth microdilution method; assay type: functional
[27] = test system: Clostridioides difficile; assay: Antibacterial activity against Clostridioides difficile NR-49285 assessed as reduction in microbial growth incubated for 48 hrs by broth microdilution method; assay type: functional
[28] = test system: Staphylococcus aureus; assay: Antibacterial activity against vancomycin resistant Staphylococcus aureus 10 assessed as reduction in microbial growth by CLSI based broth microdilution method; assay type: functional
[29] = test system: Clostridioides difficile; assay: Antibacterial activity against Clostridioides difficile NR-32895 assessed as reduction in microbial growth incubated for 48 hrs by broth microdilution method; assay type: functional
[30] = test system: Clostridioides difficile; assay: Bactericidal activity against Clostridioides difficile NR-49284 assessed as reduction in microbial growth by broth microdilution method; assay type: functional
[31] = test system: Clostridioides difficile; assay: Antibacterial activity against Clostridioides difficile NR-32904 assessed as reduction in microbial growth incubated for 48 hrs by broth microdilution method; assay type: functional
[32] = test system: Clostridioides difficile; assay: Antibacterial activity against Clostridioides difficile NR-49282 assessed as reduction in microbial growth incubated for 48 hrs by broth microdilution method; assay type: functional
[33] = test system: Clostridioides difficile; assay: Antibacterial activity against Clostridioides difficile NR-49294 assessed as reduction in microbial growth incubated for 48 hrs by broth microdilution method; assay type: functional
[34] = test system: Clostridioides difficile; assay: Antibacterial activity against Clostridioides difficile ATCC 43255 assessed as reduction in microbial growth incubated for 48 hrs by broth microdilution method; assay type: functional
[35] = test system: Lactobacillus crispatus; assay: Antibacterial activity against Lactobacillus crispatus HM 420 assessed as reduction in microbial growth incubated for 48 hrs by broth microdilution method; assay type: functional
[36] = test system: Clostridioides difficile; assay: Antibacterial activity against Clostridioides difficile NR-49279 assessed as reduction in microbial growth incubated for 48 hrs by broth microdilution method; assay type: functional
[37] = test system: Lactobacillus gasseri; assay: Antibacterial activity against Lactobacillus gasseri HM 407 assessed as reduction in microbial growth incubated for 48 hrs by broth microdilution method; assay type: functional
[38] = test system: Clostridioides difficile; assay: Bactericidal activity against Clostridioides difficile NR-32895 assessed as reduction in microbial growth by broth microdilution method; assay type: functional
[39] = test system: Bacteroides fragilis; assay: Antibacterial activity against Bacteroides fragilis HM 719 assessed as reduction in microbial growth incubated for 48 hrs by broth microdilution method; assay type: functional
[40] = test system: Clostridioides difficile; assay: Antibacterial activity against Clostridioides difficile NR-49278 assessed as reduction in microbial growth incubated for 48 hrs by broth microdilution method; assay type: functional
[41] = test system: Bifidobacterium breve; assay: Antibacterial activity against Bifidobacterium breve HM 412 assessed as reduction in microbial growth incubated for 48 hrs by broth microdilution method; assay type: functional
[42] = test system: Clostridioides difficile; assay: Antibacterial activity against Clostridioides difficile NR-49284 assessed as reduction in microbial growth incubated for 48 hrs by broth microdilution method; assay type: functional
[43] = test system: Clostridioides difficile; assay: Bactericidal activity against Clostridioides difficile ATCC BAA1870 assessed as reduction in microbial growth by broth microdilution method; assay type: functional
[44] = test system: Clostridioides difficile; assay: Antibacterial activity against Clostridioides difficile NR-49277 assessed as reduction in microbial growth incubated for 48 hrs by broth microdilution method; assay type: functional
[45] = test system: Clostridioides difficile; assay: Antibacterial activity against Clostridioides difficile NR-32903 assessed as reduction in microbial growth incubated for 48 hrs by broth microdilution method; assay type: functional
[46] = test system: Clostridioides difficile; assay: Antibacterial activity against Clostridioides difficile NR-49291 assessed as reduction in microbial growth incubated for 48 hrs by broth microdilution method; assay type: functional
[47] = test system: Bacteroides fragilis; assay: Antibacterial activity against Bacteroides fragilis HM 718 assessed as reduction in microbial growth incubated for 48 hrs by broth microdilution method; assay type: functional
[48] = test system: Clostridioides difficile; assay: Antibacterial activity against Clostridioides difficile NR-13427 assessed as reduction in microbial growth incubated for 48 hrs by broth microdilution method; assay type: functional
[49] = test system: Clostridioides difficile; assay: Antibacterial activity against Clostridioides difficile NR-32889 assessed as reduction in microbial growth incubated for 48 hrs by broth microdilution method; assay type: functional
[50] = test system: Clostridioides difficile; assay: Antibacterial activity against Clostridioides difficile NR-13436 assessed as reduction in microbial growth incubated for 48 hrs by broth microdilution method; assay type: functional
[51] = test system: Bacteria; assay: Binding affinity to wild type U15-N labelled MurA (unknown origin) expressed in Escherichia coli at 500 uM using UNAG as substrate incubated for 90 to 150 mins by 15N-1H-HSQC NMR analysis; details: time 90-150 min

Sequence of UDP-N-acetylglucosamine 1-carboxyvinyltransferase (Escherichia coli K-12), P0A749 [C115D] (P0A749 whole entry C115D): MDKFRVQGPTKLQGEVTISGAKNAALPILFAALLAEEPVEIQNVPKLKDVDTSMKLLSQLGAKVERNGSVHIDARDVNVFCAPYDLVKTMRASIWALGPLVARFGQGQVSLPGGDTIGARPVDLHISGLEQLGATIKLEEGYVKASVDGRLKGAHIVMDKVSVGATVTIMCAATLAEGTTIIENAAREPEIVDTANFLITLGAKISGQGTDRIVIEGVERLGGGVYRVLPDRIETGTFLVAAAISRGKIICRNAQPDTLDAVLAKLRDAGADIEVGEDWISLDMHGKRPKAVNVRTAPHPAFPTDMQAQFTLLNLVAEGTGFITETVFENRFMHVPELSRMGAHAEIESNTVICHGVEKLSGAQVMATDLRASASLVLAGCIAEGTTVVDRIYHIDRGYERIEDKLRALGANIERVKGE
Sequence of UDP-N-acetylglucosamine 1-carboxyvinyltransferase (Escherichia coli K-12, UniProt P0A749) (P0A749 whole entry): as the sequence (P0A749 whole entry C115D) above, with D115C counted along it
Sequence of UDP-N-acetylglucosamine 1-carboxyvinyltransferase (Escherichia coli K-12, UniProt P0A749, C115D) (P0A749 whole entry C115D): as the sequence (P0A749 whole entry C115D) above
Sequence of UDP-N-acetylglucosamine 1-carboxyvinyltransferase (Escherichia coli K-12) (P0A749 whole entry): as the sequence (P0A749 whole entry C115D) above, with D115C counted along it

In the case of O=C1NC(=O)c2cc(NC(=O)C3CN(c4cccc(Cl)c4)N(c4cccc(Cl)c4)C3=O)ccc21 (stereo not given), the IC50 [1] is reported as 11.3 µM, the MIC [2] is reported as over 40 µM and the inhibition [3] is reported as 74%. The IC50 [4] was 12.7 µM, the inhibition [5] was 81.6% and the Activity [6] was “Active”. For the same compound, the Drug uptake [7] was 924 nM, the MIC [8] was 17 µM and the Drug uptake [9] was 30 µM.

CN[C@H](CC(C)C)C(=O)N[C@H]1C(=O)N[C@@H](CC(N)=O)C(=O)N[C@H]2C(=O)N[C@H]3C(=O)N[C@H](C(=O)N[C@H](C(=O)O)c4cc(O)cc(O)c4-c4cc3ccc4O)[C@H](O)c3ccc(c(Cl)c3)Oc3cc2cc(c3O[C@@H]2O[C@H](CO)[C@@H](O)[C@H](O)[C@H]2O[C@H]2C[C@](C)(N)[C@H](O)[C@H](C)O2)Oc2ccc(cc2Cl)[C@H]1O [VANCOMYCIN] showed an MIC [10] of 1 µg/mL, an MIC [11] of 0.5 µg/mL and an MIC [12] of 2 µg/mL. For the same compound, the MIC [13] was 0.25 µg/mL, the MBC [14] was 1 µg/mL and the MIC [15] was 2 µg/mL. For the same compound, the MBC [16] was 0.5 µg/mL, the MBC [17] was 0.5 µg/mL and the MIC [18] was 1 µg/mL. It also gave an MIC [19] of 64 µg/mL, an MIC [20] of 64 µg/mL and an MIC [21] of 0.5 µg/mL. It also gave an MIC [22] of 0.5 µg/mL, an MIC [23] of 0.5 µg/mL and an MIC [24] of 1 µg/mL. For the same compound, the MIC [25] was 1 µg/mL, the MIC [26] was 1 µg/mL and the MIC [27] was 0.5 µg/mL. For the same compound, the MIC [28] was 32 µg/mL, the MIC [29] was 2 µg/mL and the MBC [30] was 0.5 µg/mL. The MIC [31] was 0.5 µg/mL, the MIC [32] was 0.25 µg/mL and the MIC [33] was 0.25 µg/mL. For the same compound, the MIC [34] was 0.5 µg/mL, the MIC [35] was 1 µg/mL and the MIC [36] was 0.25 µg/mL. For the same compound, the MIC [37] was 4 µg/mL, the MBC [38] was 2 µg/mL and the MIC [39] was over 64 µg/mL. The MIC [40] was 0.5 µg/mL, the MIC [41] was 1 µg/mL and the MIC [42] was 0.5 µg/mL. The MBC [43] was 2 µg/mL, the MIC [44] was 0.5 µg/mL and the MIC [45] was 0.5 µg/mL. For the same compound, the MIC [46] was 0.5 µg/mL, the MIC [47] was over 64 µg/mL and the MIC [48] was 2 µg/mL. For the same compound, the MIC [49] was 2 µg/mL and the MIC [50] was 0.5 µg/mL.

With C[C@@H]1O[C@@H]1P(=O)(O)O [FOSFOMYCIN] the IC50 [1] was 6.7 µM, the MIC [2] was 17 µM and the inhibition [3] was “inactive”. For the same compound, the MIC [8] was 89 µM and the Activity [51] was “Active”.
